# Reference: patent US20070117743A1, “New antitumoral compounds” (priority 2003, published 2007)
# Where a SMILES comes first, the peptide text is derived from it. Bridges are numbered along the chain shown (N, C = ends). [ ]: non-standard residue; d: D form. The star is where a group is joined. d(aIle) = CC[C@H](C)[C@@H](N)C(=O)O; d(aThr) = C[C@@H](O)[C@@H](N)C(=O)O; hCha = N[C@@H](CCC1CCCCC1)C(=O)O; Hexanoyl(5-Me) = CC(C)CCCC(=O)*; dCha = N[C@H](CC1CCCCC1)C(=O)O; Orn = NCCC[C@H](N)C(=O)O; Dhb = C/C=C(\N)C(=O)O
# How the values were obtained:
# Format in all cases: cell-based, human
# [1] = tested on: SK-BR-3; assay: SRB colorimetric assay of cell growth and viability, SK-BR-3; settings: 48 hours exposure
# [2] = tested on: HeLa; assay: SRB colorimetric assay of cell growth and viability, HeLa; settings: 48 hours exposure; for CC50: read-out: LC50 HELA
# [3] = tested on: DU-145; assay: SRB colorimetric assay of cell growth and viability, DU-145; settings: 48 hours exposure
# [4] = tested on: LoVo; assay: SRB colorimetric assay of cell growth and viability, LoVo; settings: 48 hours exposure; for CC50: read-out: LC50 LOVO
# [5] = tested on: LNCaP; assay: SRB colorimetric assay of cell growth and viability, LNCaP; settings: 48 hours exposure; for GI50: read-out: GI50 LN-caP; for CC50: read-out: LC50 LN-caP
# [6] = tested on: IGROV-ET; assay: SRB colorimetric assay of cell growth and viability, IGROV-ET; settings: 48 hours exposure; for CC50: read-out: LC50 IGROV-ET
# [7] = tested on: IGROV-1; assay: SRB colorimetric assay of cell growth and viability, IGROV-1; settings: 48 hours exposure
# [8] = tested on: HT-29; assay: SRB colorimetric assay of cell growth and viability, HT-29; settings: 48 hours exposure; for GI50: read-out: GI50 HT-29; for CC50: read-out: LC50 HT-29
# [9] = tested on: K-562; assay: SRB colorimetric assay of cell growth and viability, K-562; settings: 48 hours exposure; for CC50: read-out: LC50 K-562
# [10] = tested on: HeLa-APL; assay: SRB colorimetric assay of cell growth and viability, HeLa-APL; settings: 48 hours exposure; for CC50: read-out: LC50 HELA-APL
# [11] = tested on: A-549; assay: SRB colorimetric assay of cell growth and viability, A-549; settings: 48 hours exposure; for GI50: read-out: GI50 A-549; for CC50: read-out: LC50 A-549
# [12] = tested on: PANC-1; assay: SRB colorimetric assay of cell growth and viability, PANC-1; settings: 48 hours exposure; for CC50: read-out: LC50 PANC-1
# [13] = tested on: SK-MEL-28; assay: SRB colorimetric assay of cell growth and viability, SK-MEL-28; settings: 48 hours exposure; for CC50: read-out: LC50 MEL-28
# [14] = tested on: LoVo-Dox; assay: SRB colorimetric assay of cell growth and viability, LoVo-Dox; settings: 48 hours exposure; for CC50: read-out: LC50 LOVO-DOX
# How it was run: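 Absorbance at 490 nm of Tris-solubilized sulforhodamine B gives the read-out after cells are fixed with cold 50% TCA for 60 min at 4° C. Compound exposure lasts 48 hours over 10 to 10^−8 μg/mL. Growth inhibition, total growth inhibition and lethal concentration are calculated from triplicate wells.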
structure (smiles),measurement,setting,value
"C/C=C1\NC(=O)[C@H](Cc2ccccc2)NC(=O)[C@@H](C(C)C)NC(=O)[C@@H]([C@@H](C)CC)NC(=O)[C@H](NC(=O)[C@H](NC(=O)[C@H](CCCN)NC(=O)[C@H]2CCCN2C(=O)[C@H](NC(=O)[C@H](CCC2CCCCC2)NC(=O)[C@@H](NC(=O)[C@H](NC(=O)CCCC(C)C)C(C)C)[C@@H](C)O)C(C)C)[C@@H](C)CC)[C@@H](C)OC(=O)[C@H](C(C)C)NC1=O [Compound 9, [hCh^11]-KF] ({Hexanoyl(5-Me)}-[dV]T[hCha][dV][dP][Orn][d(aIle)][d(aThr)][d(aIle)][dV]F[Dhb]V; ester 8-C)",GI50,[1],149 nM
same,LC50,[1],1360 nM
same,TGI SK-BR-3,[1],3.66E−07 Molar
same,GI50,[2],356 nM
same,TGI HELA,[2],1.12E−06 Molar
same,CC50,[2],2920 nM
same,GI50,[3],455 nM
same,LC50 (concentration causing 50% net cell kill),[3],3280 nM
same,TGI DU-145,[3],1.24E−06 Molar
same,GI50,[4],95.7 nM
same,TGI LOVO,[4],1.93E−07 Molar
same,CC50,[4],390 nM
same,TGI LN-caP,[5],2.33E−06 Molar
same,GI50,[5],925 nM
same,CC50,[5],5850 nM
same,GI50,[6],278 nM
same,TGI IGROV-ET,[6],8.09E−07 Molar
same,CC50,[6],2940 nM
same,GI50,[7],237 nM
same,LC50 (concentration causing 50% net cell killing),[7],3310 nM
same,TGI IGROV,[7],7.76E−07 Molar
same,TGI HT-29,[8],1.92E−07 Molar
same,GI50,[8],86 nM
same,CC50,[8],429 nM
same,GI50,[9],1720 nM
same,TGI K-562,[9],3.39E−06 Molar
same,CC50,[9],6470 nM
same,GI50,[10],391 nM
same,TGI HELA-APL,[10],1.20E−06 Molar
same,CC50,[10],2750 nM
same,TGI A-549,[11],4.48E−07 Molar
same,GI50,[11],184 nM
same,CC50,[11],1640 nM
same,GI50,[12],2250 nM
same,TGI PANC-1,[12],5.27E−06 Molar
same,CC50,[12],6470 nM
same,GI50,[13],321 nM
same,TGI MEL-28,[13],9.44E−07 Molar
same,CC50,[13],2620 nM
same,GI50,[14],50.7 nM
same,TGI LOVO-DOX,[14],1.30E−07 Molar
same,CC50,[14],305 nM
"C/C=C1\NC(=O)[C@H](Cc2ccccc2)NC(=O)[C@@H](CC2CCCCC2)NC(=O)[C@@H](CC2CCCCC2)NC(=O)[C@H](NC(=O)[C@@H](CC2CCCCC2)NC(=O)[C@H](CCCN)NC(=O)[C@H]2CCCN2C(=O)[C@H](NC(=O)[C@@H](NC(=O)[C@@H](NC(=O)[C@H](NC(=O)CCCC(C)C)C(C)C)[C@@H](C)O)C(C)C)C(C)C)[C@@H](C)OC(=O)[C@H](C(C)C)NC1=O [Compound 11, [D-Cha^4, D-Cha^5, D-Cha^7]-KF] ({Hexanoyl(5-Me)}-[dV]TV[dV][dP][Orn][dCha][d(aThr)][dCha][dCha]F[Dhb]V; ester 8-C)",GI50,[1],106 nM
same,LC50,[1],599 nM
same,TGI SK-BR-3,[1],2.52E−07 Molar
same,GI50,[2],223 nM
same,TGI HELA,[2],8.93E−07 Molar
same,CC50,[2],2550 nM
same,GI50,[3],220 nM
same,LC50 (concentration causing 50% net cell kill),[3],2640 nM
same,TGI DU-145,[3],8.56E−07 Molar
same,GI50,[4],97.4 nM
same,TGI LOVO,[4],1.99E−07 Molar
same,CC50,[4],406 nM
same,TGI LN-caP,[5],1.40E−06 Molar
same,GI50,[5],645 nM
same,CC50,[5],3010 nM
same,GI50,[6],133 nM
same,TGI IGROV-ET,[6],3.03E−07 Molar
same,CC50,[6],1290 nM
same,GI50,[7],190 nM
same,LC50 (concentration causing 50% net cell killing),[7],2990 nM
same,TGI IGROV,[7],5.67E−07 Molar
same,TGI HT-29,[8],1.91E−07 Molar
same,GI50,[8],97.4 nM
same,CC50,[8],377 nM
same,GI50,[9],1580 nM
same,TGI K-562,[9],2.56E−06 Molar
same,CC50,[9],4140 nM
same,GI50,[10],211 nM
same,TGI HELA-APL,[10],8.31E−07 Molar
same,CC50,[10],2320 nM
same,TGI A-549,[11],2.60E−07 Molar
same,GI50,[11],132 nM
same,CC50,[11],511 nM
same,GI50,[12],1430 nM
same,TGI PANC-1,[12],2.74E−06 Molar
same,CC50,[12],5250 nM
same,GI50,[13],455 nM
same,TGI MEL-28,[13],1.28E−06 Molar
same,CC50,[13],3030 nM
same,GI50,[14],81.9 nM
same,TGI LOVO-DOX,[14],1.64E−07 Molar
same,CC50,[14],326 nM
